# Measured values from patent US5134235A, “Process for separating folinic acid” (Eprova A.G., priority 1987, dated 1992).
# Like-named read-outs stand apart in the source and are kept apart here.
# What was measured:
# [1] = cited: J. A. Straw et al, Cancer Research 44, 3114 (1984); cited from earlier work
# [2] = cited: J. A. Straw et al, Cancer Research 44, 3114 (1984); cited from earlier work; remark: listed apart in the source
# Solubility in water = format: physicochemical; settings: for solubility in water (in words): qualitative; for solubility: water
# [3] = Stability of folinic acid at higher pH during recrystallization; format: physicochemical; settings: pH above the 8.5 to 12 range of the first recrystallization
compound,measurement,setting,value
Nc1nc2c(c(=O)[nH]1)N(C=O)[C@H](CNc1ccc(C(=O)N[C@@H](CCC(=O)O)C(=O)O)cc1)CN2 [5-CHO-(6R)-H4 PteGlu],elimination through the urine,[1],slowly eliminated through the urine
same,metabolism,[1],barely metabolized
same,biochemical activity,[2],biochemically inactive
"Nc1nc(=O)c2c([nH]1)NC[C@H](CNc1ccc(C(=O)N[C@@H](CCC(=O)O)C(=O)O)cc1)N2C=O [(6S)-folinic acid, N-(5-formyl-(6S)-5,6,7,8-tetrahydro-pteroyl)-L-glutamic acid]",solubility in water (in words),Solubility in water,barely soluble
Nc1nc(=O)c2c([nH]1)NC[C@H](CNc1ccc(C(=O)N[C@@H](CCC(=O)O)C(=O)O)cc1)N2C=O [Potassium-(6S)-folinate],solubility in water (in words),Solubility in water,readily soluble
Nc1nc(=O)c2c([nH]1)NC[C@H](CNc1ccc(C(=O)N[C@@H](CCC(=O)O)C(=O)O)cc1)N2C=O [Sodium-(6S)-folinate],solubility in water (in words),Solubility in water,readily soluble
"Nc1nc(=O)c2c([nH]1)NC[C@H](CNc1ccc(C(=O)N[C@@H](CCC(=O)O)C(=O)O)cc1)N2C=O [calcium-(6S)-folinate, Calcium-(6S)-folinate]",strength of aqueous solution that can be formed,"Solubility in water; at 20° C., aqueous solution",0.95%
same,solubility,"Solubility in water; at 40° C., read-out: Solubility in water",15 mg/mL
"Nc1nc2c(c(=O)[nH]1)N(C=O)C(CNc1ccc(C(=O)N[C@@H](CCC(=O)O)C(=O)O)cc1)CN2 (stereo partly drawn) [folinic acid, N-(5-formyl-(6R,S)-5,6,7,8-tetrahydro-pteroyl)-L-glutamic acid]",stability at higher pH,[3],appreciably lower
"Nc1nc(=O)c2c([nH]1)NC[C@H](CNc1ccc(C(=O)N[C@@H](CCC(=O)O)C(=O)O)cc1)N2C=O [magnesium-(6S)-folinate, Magnesium-(6S)-folinate]",Solubility in water,Solubility in water; at 20° C.,2.4 g/100 ml
same,solubility,"Solubility in water; general statement in description, temperature not given, read-out: water solubility",> 20 mg/mL
